Assay results as given in patent publication US7297700B2, “Bicycloheteroaryl compounds as P2X7 modulators and uses thereof” (Renovis, Inc., priority 2005, dated 2007).

These molecules were tested on IL-1β release from THP-1 cells (assay: IL-1β Release Assay (Alternate Method), THP-1 cells). Details: at 0.3 μM; THP-1 cells.
Type: cell-based, human
Outline: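 IL-1β release, measured by ELISA, follows 45 min BzATP (250 uM final) stimulation of THP-1 cells given 30 min compound pretreatment. Cells were first primed 16 h with LPS and IFN-γ (100 ng/mL each), then 2 h with fresh LPS; inhibition expressed in percent after background correction.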

SMILES	IL-1β % inhibition
O=C(CC12CC3CC(CC(C3)C1)C2)Nc1ncnc2c1CCN(S(=O)(=O)c1ccc(F)cc1)C2 [Compound 152]	+ (compound exhibited 0-25% inhibition at 0.3 μM)
COc1ccccc1CCC(=O)Nc1ncnc2c1CCN(Cc1ccccn1)C2 [Compound 134]	+ (compound exhibited 0-25% inhibition at 0.3 μM)
COc1cc(CN2CCc3c(ncnc3NC(=O)CC34CC5CC(CC(C5)C3)C4)C2)cc(OC)c1 [Compound 37]	+ (compound exhibited 0-25% inhibition at 0.3 μM)
CC12CC3(C)CC(C)(C1)CC(CC(=O)Nc1ncnc4c1CCN(Cc1ccccc1)C4)(C2)C3 [Compound 344]	+ (compound exhibited 0-25% inhibition at 0.3 μM)
O=C(CC12CC3CC(CC(C3)C1)C2)Nc1ncnc2c1CCN(Cc1ccc(Cl)s1)C2 [Compound 83]	++++ (compound exhibited 75% or greater inhibition at 0.3 μM)
Cc1ccc(C)c(CN2CCc3c(ncnc3NC(=O)CC34CC5CC(CC(C5)C3)C4)C2)c1 [Compound 32]	+ (compound exhibited 0-25% inhibition at 0.3 μM)
O=C(CC12CC3CC(CC(C3)C1)C2)Nc1ncnc2c1CCN(C(=O)c1ccno1)C2 [Compound 296]	+++ (compound exhibited 50-75% inhibition at 0.3 μM)
CC(C)(C)c1ccc(C(=O)N2CCc3c(ncnc3NC(=O)CC34CC5CC(CC(C5)C3)C4)C2)cc1 [Compound 301]	++++ (compound exhibited 75% or greater inhibition at 0.3 μM)
O=C(CC12CC3CC(CC(C3)C1)C2)Nc1ncnc2c1CCN(Cc1ccc(F)cc1)C2 [Compound 123]	+ (compound exhibited 0-25% inhibition at 0.3 μM)
O=C(CC12CC3CC(CC(C3)C1)C2)Nc1ncnc2c1CCN(S(=O)(=O)Cc1cc(C(F)(F)F)cc(C(F)(F)F)c1)C2 [Compound 182]	+++ (compound exhibited 50-75% inhibition at 0.3 μM)
O=C(CC12CC3CC(CC(C3)C1)C2)Nc1ncnc2c1CCN(Cc1ccc(C(F)(F)F)c(F)c1)C2 [Compound 97]	++ (compound exhibited 25-50% inhibition at 0.3 μM)
CC(C)(C(=O)Nc1ncnc2c1CCN(S(=O)(=O)Cc1ccc(Cl)c(Cl)c1)C2)C12CC3CC(CC(C3)C1)C2 [Compound 356]	+ (compound exhibited 0-25% inhibition at 0.3 μM)
O=C(CC12CC3CC(CC(C3)C1)C2)Nc1ncnc2c1CCN(Cc1ccccc1OC(F)(F)F)C2 [Compound 76]	+ (compound exhibited 0-25% inhibition at 0.3 μM)
Cc1ccc(C(=O)N2CCc3c(ncnc3NC(=O)CC34CC5CC(CC(C5)C3)C4)C2)cc1 [Compound 291]	++++ (compound exhibited 75% or greater inhibition at 0.3 μM)
CCS(=O)(=O)N1CCc2c(ncnc2NC(=O)CC23CC4CC(CC(C4)C2)C3)C1 [Compound 148]	+ (compound exhibited 0-25% inhibition at 0.3 μM)
CC12CC3CC(C)(C1)CC(CC(=O)Nc1ncnc4c1CCN(Cc1ccccc1F)C4)(C3)C2 [Compound 371]	+++ (compound exhibited 50-75% inhibition at 0.3 μM)
O=C(CC12CC3CC(CC(C3)C1)C2)Nc1ncnc2c1CCN(S(=O)(=O)c1cccc(Cl)c1)C2 [Compound 168]	++++ (compound exhibited 75% or greater inhibition at 0.3 μM)
CC12CC3CC(C)(C1)CC(CC(=O)Nc1ncnc4c1CCN(S(=O)(=O)Cc1ccc(Cl)cc1)C4)(C3)C2 [Compound 379]	+++ (compound exhibited 50-75% inhibition at 0.3 μM)
COc1ccccc1CCC(=O)Nc1ncnc2c1CCN(Cc1c[nH]cn1)C2 [Compound 135]	+ (compound exhibited 0-25% inhibition at 0.3 μM)
O=C(CC12CC3CC(CC(C3)C1)C2)Nc1ncnc2c1CCN(Cc1cc(F)ccc1C(F)(F)F)C2 [Compound 96]	+ (compound exhibited 0-25% inhibition at 0.3 μM)
Cc1cccc(CN2CCc3c(ncnc3NC(=O)CC34CC5CC(CC(C5)C3)C4)C2)c1 [Compound 38]	+ (compound exhibited 0-25% inhibition at 0.3 μM)
Cc1cccc(C(=O)N2CCc3c(ncnc3NC(=O)CC34CC5CC(C)(CC(C)(C5)C3)C4)C2)c1 [Compound 382]	++ (compound exhibited 25-50% inhibition at 0.3 μM)
O=C(CC12CC3CC(CC(C3)C1)C2)Nc1ncnc2c1CCN(C(=O)COc1ccc(Cl)cc1)C2 [Compound 264]	+++ (compound exhibited 50-75% inhibition at 0.3 μM)
O=C(CC1CCCCCC1)Nc1ncnc2c1CCN(CC1CCCC1)C2 [Compound 128]	+ (compound exhibited 0-25% inhibition at 0.3 μM)
O=C(CC12CC3CC(CC(C3)C1)C2)Nc1ncnc2c1CCN(S(=O)(=O)c1ccc(F)cc1Cl)C2 [Compound 211]	+ (compound exhibited 0-25% inhibition at 0.3 μM)
O=C(CC12CC3CC(CC(C3)C1)C2)Nc1ncnc2c1CCN(CC1CCCCC1)C2 [Compound 122]	+ (compound exhibited 0-25% inhibition at 0.3 μM)
O=C(CC12CC3CC(CC(C3)C1)C2)Nc1ncnc2c1CCN(C(=O)c1ccc3ccccc3n1)C2 [Compound 303]	+++ (compound exhibited 50-75% inhibition at 0.3 μM)

Same assay, conditions: at 0.3 μM; THP-1 cells, BzATP-stimulated

SMILES	IL-1β % inhibition
O=C(Cc1ccc(Cl)cc1)N1CCc2c(ncnc2NC(=O)C23CC4CC(CC(C4)C2)C3)C1 [Compound 437]	+ (compound exhibited 0-25% inhibition at 0.3 μM)
COc1cc(OC)cc(C(=O)N2CCc3c(ncnc3NC(=O)C34CC5CC(CC(C5)C3)C4)C2)c1 [Compound 418]	++ (compound exhibited 25-50% inhibition at 0.3 μM)
O=C(Nc1ncnc2c1CCN(S(=O)(=O)c1ccc(Cl)cc1F)C2)C12CC3CC(CC(C3)C1)C2 [Compound 536]	++ (compound exhibited 25-50% inhibition at 0.3 μM)
O=C(c1ccc(C(F)(F)F)cc1)N1CCc2c(ncnc2NC(=O)C23CC4CC(CC(C4)C2)C3)C1 [Compound 415]	+ (compound exhibited 0-25% inhibition at 0.3 μM)
O=C(Nc1ncnc2c1CCN(S(=O)(=O)c1cc(C(F)(F)F)ccc1Cl)C2)C12CC3CC(CC(C3)C1)C2 [Compound 514]	+ (compound exhibited 0-25% inhibition at 0.3 μM)
Cc1cc(C(=O)N2CCc3c(ncnc3NC(=O)C34CC5CC(CC(C5)C3)C4)C2)c(C)o1 [Compound 463]	++ (compound exhibited 25-50% inhibition at 0.3 μM)
O=C(Nc1ncnc2c1CCN(Cc1cccc3c1OCO3)C2)C12CC3CC(CC(C3)C1)C2 [Compound 596]	+++ (compound exhibited 50-75% inhibition at 0.3 μM)
O=C(Nc1ncnc2c1CCN(Cc1ccc(OCc3ccc(F)cc3)cc1)C2)C12CC3CC(CC(C3)C1)C2 [Compound 622]	++ (compound exhibited 25-50% inhibition at 0.3 μM)
Cc1noc(C)c1S(=O)(=O)N1CCc2c(ncnc2NC(=O)C23CC4CC(CC(C4)C2)C3)C1 [Compound 503]	+ (compound exhibited 0-25% inhibition at 0.3 μM)
O=C(Nc1ncnc2c1CCN(CCCc1ccccc1)C2)C12CC3CC(CC(C3)C1)C2 [Compound 559]	++ (compound exhibited 25-50% inhibition at 0.3 μM)
O=C(c1cc(F)ccc1F)N1CCc2c(ncnc2NC(=O)C23CC4CC(CC(C4)C2)C3)C1 [Compound 451]	+ (compound exhibited 0-25% inhibition at 0.3 μM)
O=C(c1cccc(Cl)c1)N1CCc2c(ncnc2NC(=O)C23CC4CC(CC(C4)C2)C3)C1 [Compound 425]	+ (compound exhibited 0-25% inhibition at 0.3 μM)
CCCN1CCc2c(ncnc2NC(=O)C23CC4CC(CC(C4)C2)C3)C1 [Compound 555]	+ (compound exhibited 0-25% inhibition at 0.3 μM)
